From PubChem BioAssay (NCI)
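48-hour exposure; five concentrations; linearly interpolated endpoints. TGI denotes the concentration required for complete inhibition of growth.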

Key:
Test in all cases: DTP human tumour cell line panel, 48 h
786-0 renal = test system: 786-0 renal
A498 renal = test system: A498 renal
A549 NSCLC = test system: A549 NSCLC
ACHN renal = test system: ACHN renal
BT-549 breast = test system: BT-549 breast
CAKI-1 renal = test system: CAKI-1 renal
COLO 205 colon = test system: COLO 205 colon
DU-145 prostate = test system: DU-145 prostate
EKVX NSCLC = test system: EKVX NSCLC
HCC-2998 colon = test system: HCC-2998 colon
HCT-116 colon = test system: HCT-116 colon
HCT-15 colon = test system: HCT-15 colon
HOP-62 NSCLC = test system: HOP-62 NSCLC
HOP-92 NSCLC = test system: HOP-92 NSCLC
HS 578T breast = test system: HS 578T breast
HT29 colon = test system: HT29 colon
IGROV1 ovarian = test system: IGROV1 ovarian
K-562 leukemia = test system: K-562 leukemia
KM12 colon = test system: KM12 colon
M14 melanoma = test system: M14 melanoma
MALME-3M melanoma = test system: MALME-3M melanoma
MCF7 breast = test system: MCF7 breast
MDA-MB-231 breast = test system: MDA-MB-231 breast
MDA-MB-435 = test system: MDA-MB-435
MDA-N = test system: MDA-N
NCI-H226 lung = test system: NCI-H226 lung
NCI-H23 lung = test system: NCI-H23 lung
NCI-H460 lung = test system: NCI-H460 lung
NCI-H522 lung = test system: NCI-H522 lung
NCI/ADR-RES ovarian = test system: NCI/ADR-RES ovarian
OVCAR-3 ovarian = test system: OVCAR-3 ovarian
OVCAR-4 ovarian = test system: OVCAR-4 ovarian
OVCAR-5 ovarian = test system: OVCAR-5 ovarian
OVCAR-8 ovarian = test system: OVCAR-8 ovarian
PC-3 prostate = test system: PC-3 prostate
RPMI-8226 leukemia = test system: RPMI-8226 leukemia
RXF 393 renal = test system: RXF 393 renal
SF-268 CNS = test system: SF-268 CNS
SF-295 CNS = test system: SF-295 CNS
SF-539 CNS = test system: SF-539 CNS
SK-MEL-2 melanoma = test system: SK-MEL-2 melanoma
SK-MEL-28 melanoma = test system: SK-MEL-28 melanoma
SK-MEL-5 melanoma = test system: SK-MEL-5 melanoma
SK-OV-3 ovarian = test system: SK-OV-3 ovarian
SN12C renal = test system: SN12C renal
SNB-19 CNS = test system: SNB-19 CNS
SNB-75 CNS = test system: SNB-75 CNS
SW-620 colon = test system: SW-620 colon
T-47D breast = test system: T-47D breast
TK-10 renal = test system: TK-10 renal
U251 CNS = test system: U251 CNS
UACC-257 melanoma = test system: UACC-257 melanoma
UACC-62 melanoma = test system: UACC-62 melanoma
UO-31 renal = test system: UO-31 renal
LOX IMVI melanoma = test system: LOX IMVI melanoma

C/C(=N\NC1=NCCN1)c1cn(C2=NCCN2)nc1C
TGI (786-0 renal): > 100 µM
TGI (A498 renal): > 100 µM
TGI (A549 NSCLC): > 100 µM
TGI (ACHN renal): > 100 µM
TGI (BT-549 breast): > 100 µM
TGI (CAKI-1 renal): > 100 µM
TGI (COLO 205 colon): > 100 µM
TGI (DU-145 prostate): > 100 µM
TGI (EKVX NSCLC): > 100 µM
TGI (HCC-2998 colon): > 100 µM
TGI (HCT-116 colon): > 100 µM
TGI (HCT-15 colon): > 100 µM
TGI (HOP-62 NSCLC): > 100 µM
TGI (HOP-92 NSCLC): > 100 µM
TGI (HS 578T breast): > 100 µM
TGI (HT29 colon): > 100 µM
TGI (IGROV1 ovarian): > 100 µM
TGI (K-562 leukemia): > 100 µM
TGI (KM12 colon): > 100 µM
TGI (M14 melanoma): > 100 µM
TGI (MALME-3M melanoma): > 100 µM
TGI (MCF7 breast): > 100 µM
TGI (MDA-MB-231 breast): > 100 µM
TGI (MDA-MB-435): > 100 µM
TGI (MDA-N): > 100 µM
TGI (NCI-H226 lung): > 100 µM
TGI (NCI-H23 lung): > 100 µM
TGI (NCI-H460 lung): > 100 µM
TGI (NCI-H522 lung): > 100 µM
TGI (NCI/ADR-RES ovarian): > 100 µM
TGI (OVCAR-3 ovarian): > 100 µM
TGI (OVCAR-4 ovarian): > 100 µM
TGI (OVCAR-5 ovarian): > 100 µM
TGI (OVCAR-8 ovarian): > 100 µM
TGI (PC-3 prostate): > 100 µM
TGI (RPMI-8226 leukemia): > 100 µM
TGI (RXF 393 renal): > 100 µM
TGI (SF-268 CNS): > 100 µM
TGI (SF-295 CNS): > 100 µM
TGI (SF-539 CNS): > 100 µM
TGI (SK-MEL-2 melanoma): > 100 µM
TGI (SK-MEL-28 melanoma): > 100 µM
TGI (SK-MEL-5 melanoma): > 100 µM
TGI (SK-OV-3 ovarian): > 100 µM
TGI (SN12C renal): > 100 µM
TGI (SNB-19 CNS): > 100 µM
TGI (SNB-75 CNS): > 100 µM
TGI (SW-620 colon): > 100 µM
TGI (T-47D breast): > 100 µM
TGI (TK-10 renal): > 100 µM
TGI (U251 CNS): > 100 µM
TGI (UACC-257 melanoma): > 100 µM
TGI (UACC-62 melanoma): > 100 µM
TGI (UO-31 renal): > 100 µM

Clc1ccc(CSc2ncnc3c2ncn3C2CCCCO2)cc1 (stereo not drawn)
TGI (786-0 renal): 56.2 µM
TGI (A498 renal): 31.9 µM
TGI (A549 NSCLC): > 100 µM
TGI (ACHN renal): 29.8 µM
TGI (BT-549 breast): 68.2 µM
TGI (CAKI-1 renal): > 100 µM
TGI (COLO 205 colon): 56.9 µM
TGI (DU-145 prostate): > 100 µM
TGI (EKVX NSCLC): 50.1 µM
TGI (HCC-2998 colon): 38.1 µM
TGI (HCT-116 colon): 53.9 µM
TGI (HCT-15 colon): > 100 µM
TGI (HOP-62 NSCLC): 45.7 µM
TGI (HOP-92 NSCLC): 89.2 µM
TGI (HS 578T breast): 76.4 µM
TGI (HT29 colon): 35.5 µM
TGI (IGROV1 ovarian): > 100 µM
TGI (K-562 leukemia): 66.1 µM
TGI (KM12 colon): 46.9 µM
TGI (LOX IMVI melanoma): 36.3 µM
TGI (M14 melanoma): 31 µM
TGI (MALME-3M melanoma): 38.4 µM
TGI (MCF7 breast): 83.7 µM
TGI (MDA-MB-231 breast): 86.3 µM
TGI (MDA-MB-435): 38.1 µM
TGI (MDA-N): 43.8 µM
TGI (NCI-H226 lung): 76.7 µM
TGI (NCI-H23 lung): 64.8 µM
TGI (NCI-H460 lung): 36.7 µM
TGI (NCI-H522 lung): 33.7 µM
TGI (NCI/ADR-RES ovarian): 63.2 µM
TGI (OVCAR-3 ovarian): 32.5 µM
TGI (OVCAR-4 ovarian): > 100 µM
TGI (OVCAR-5 ovarian): > 100 µM
TGI (OVCAR-8 ovarian): 71.5 µM
TGI (PC-3 prostate): 74.7 µM
TGI (RPMI-8226 leukemia): 39.4 µM
TGI (RXF 393 renal): 80.2 µM
TGI (SF-268 CNS): 77.4 µM
TGI (SF-295 CNS): 36.7 µM
TGI (SK-MEL-2 melanoma): 32 µM
TGI (SK-MEL-28 melanoma): 48.8 µM
TGI (SK-MEL-5 melanoma): 22.9 µM
TGI (SK-OV-3 ovarian): 55.6 µM
TGI (SN12C renal): 38.7 µM
TGI (SNB-19 CNS): > 100 µM
TGI (SNB-75 CNS): 58.1 µM
TGI (SW-620 colon): > 100 µM
TGI (T-47D breast): 57.8 µM
TGI (TK-10 renal): 60.4 µM
TGI (U251 CNS): 44.9 µM
TGI (UACC-257 melanoma): 24.9 µM
TGI (UACC-62 melanoma): 30 µM
TGI (UO-31 renal): 4.36 µM
